In patent publication US20230233533A1, “COMPOSITIONS, METHODS OF TREATING AND PREVENTING FUNGAL INFECTIONS, AND METHODS OF INHIBITING PRP8 INTEIN EXPRESSION” (Health Research, Inc., priority 2020, published 2023):
In brackets after ≈: the same amount, converted by molar mass. Numbered stars: 1 amine (or outer) side, 2 acyl side, 3 side chain; on linkers, the order of the positions; unused ones are H or OH. Bridge positions count the residues as written; N and C are the ends. Square brackets hold non-standard residues; d marks the D form. Peptide text beside a SMILES is read from it. * marks the point of attachment. hTyr(3S-OH,4S-OH,3'-OSO3H) = N[C@H](C(=O)O)[C@H](O)[C@@H](O)c1ccc(O)c(OS(=O)(=O)O)c1; pTerphenylCO(4''-OnC5H11) = CCCCCOc1ccc(-c2ccc(-c3ccc(C(=O)*)cc3)cc2)cc1; Orn(4R-OH,5R-OH) = O=C([C@H](C[C@@H](O)[C@@H](O)N[*:3])N[*:1])[*:2]; hTyr(3S-OH,4S-OH) = N[C@H](C(=O)O)[C@H](O)[C@@H](O)c1ccc(O)cc1; Pro(3S-OH,4S-Me) = C[C@H]1CN[C@H](C(=O)O)[C@H]1O; X1 = CCCCCOc1ccc(-c2cc(-c3ccc(C(=O)*)cc3)no2)cc1; Gln(3R-OH) = NC(=O)C[C@@H](O)[C@H](N)C(=O)O; Hyp = O=C(O)[C@@H]1C[C@@H](O)CN1

Legend:
[1] = target: T1, Prp8 intein (Cryptococcus gattii, UniProt E6R027); experiment: Split GFP-Prp8i intein splicing assay; type: biochemical; settings: split GFP-Prp8 intein splicing
T1 sequence (E6R027 entry or part of it): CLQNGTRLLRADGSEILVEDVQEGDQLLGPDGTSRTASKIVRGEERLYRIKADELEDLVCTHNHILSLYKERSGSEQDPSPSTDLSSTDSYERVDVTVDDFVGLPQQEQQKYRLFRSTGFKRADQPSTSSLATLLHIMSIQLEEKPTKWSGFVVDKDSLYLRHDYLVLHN
Protocol: Cloning, expression and purfication—The split GFP-Prp8i was constructed using a mega-PCR mutagenesis approach. […] After digestion with Dpn I restriction enzyme, the PCR product was transformed into DH5α Escherichia coli. Clones were verified by plasmid DNA sequencing. The expression, refolding and purification of the GFP-Prp8i fusion protein were carried out as described previously.
[…] Then 100 μl 2×TCEP was added to a final concentration of 20 μM. The reactions were incubated at 25° C. overnight. […] Two readings were taken, one prior to addition of TCEP (I0) and one after incubation overnight with TCEP (If). Fluorescence/luminescence differences (ΔFluorescence or ΔLuminescence) were defined as If−I0 for each well. […] DMF control served as 100% splicing activity.
Split GFP-Prp8 and CJGFP-Prp8 intein splicing assays—Using black and clear bottom 96-well plates, the DPNB-treated, -refolded and -concentrated GFP-Prp8 or CfGFP-Prp8 fusion protein (0.5 μM) was incubated with compounds or Dimethylsulfoxide (DMSO) solvent control for 30 min at 25° C. in a 100 μl intein splicing buffer (20 mM Bis-tris propane, 0.5 M NaCl, 0.5 M arginine, 1 mM EDTA, and 0.05% CHAPS). Then 100 μl 2×TCEP was added to a final concentration of 20 μM. The reactions were incubated at 25° C. overnight. […] Two readings were taken, one prior to addition of TCEP (I0) and one after incubation overnight with TCEP (If). Fluorescence/luminescence differences (ΔFluorescence or ΔLuminescence) were defined as If−I0 for each well. […] DMSO control served as 100% splicing activity.

[2] = target: T1, Prp8 intein; experiment: Split Renilla luciferase RLuc-Prp8 intein splicing assay; type: biochemical; settings: split Renilla luciferase RLuc-Prp8 intein splicing
Protocol: Split luciferase Prp8 intein splicing assay—The split RLuc-Prp8 fusion protein was carried out and monitored using a Veritas luminometer, as described previously.
Split luciferase RLuc-Prp8 and NnLuc-Prp8 intein splicing assays—The split RLuc-Prp8 intein splicing assay was carried out and monitored using a Veritas luminometer, as described previously. […] Microbes. Infect. […] For NnLuc-Prp8 intein splicing assay, the NnLuc-prp8 is diluted in assay buffer (50 mM Tris, 0.1% BSA, 1 mM EDTA, pH 7.4) and 50 ul is added to each well in 96 well black plates. Test molecules or the solvent was added and incubated for 30 to 60 min. A splicing inducer TCEP (50 ul, 100 μM) is added and incubated for 24 h. Luciferase substrate (Furimazine, 25 ul 1:10,000 diluted) is added and luminescence is read using a luminescence reader. IC50 is calculated using Graphpad prism.

[3] = in vitro; type: cell-based, human; settings: human, CC50 A549
Protocol: Cytotoxicity—Cytotoxicity assays were carried out using human lung carcinoma cell line A549, as described (Chen et al., “Selective Inhibition of the West Nile Virus Methyltransferase by Nucleoside Analogs,” Antiviral Research 97(3):232-239 (2013), which is hereby incorporated by reference in its entirety). Briefly, the A549 cells (5×10^3) were incubated with/without compounds in a 96-well plate at 37° C. for 48 h. Cell viability was determined using the MTT assay (ATCC) as was described previously (Chen et al., “Selective Inhibition of the West Nile Virus Methyltransferase by Nucleoside Analogs,” Antiviral Research 97(3):232-239 (2013) and Brecher et al., “Identification and Characterization of Novel Broad-Spectrum Inhibitors of the Flavivirus Methyltransferase,” ACS Infectious Diseases 1(8):340-349 (2015), both of which are hereby incorporated by reference in their entirety). N=3.
Cytotoxicity—Cytotoxicity assays were carried out using human lung carcinoma cell line A549, as described. Chen et al., “Selective Inhibition of the West Nile Virus Methyltransferase by Nucleoside Analogs,” Antiviral Res. 97:232-9 (2013), which is hereby incorporated by reference in its entirety. Briefly, the A549 cells (5×10^3) were incubated with/without compounds in a 96-well plate at 37° C. for 48 h. Cell viability was determined using the MTT assay (ATCC) as was described previously (Chen et al., “Selective Inhibition of the West Nile Virus Methyltransferase by Nucleoside Analogs,” Antiviral Research 97(3):232-239 (2013) and Brecher et al., “Identification and Characterization of Novel Broad-Spectrum Inhibitors of the Flavivirus Methyltransferase,” ACS Infectious Diseases 1(8):340-349 (2015), both of which are hereby incorporated by reference in their entirety). N=3.

[4] = system: C. neoformans H99 strain; experiment: Fungal susceptibility test, broth microdilution MIC; type: cell-based, Cryptococcus neoformans; settings: Cryptococcus neoformans, H99STRAIN; C. neoformans H99, microbroth dilution; read-out: MIC H99
Protocol: Fungal susceptibility test—The fungal susceptibility test was carried out with a compound concentration series as described. […] The broth microdilution method was used to determine the compound MIC values against C. neoformans.
Fungal susceptibility test—The fungal susceptibility test was carried out with a compound concentration series as described. […] Microbes. Infect. […] The broth microdilution method was used to determine the compound MIC values against C. neoformans.

[5] = system: C. neoformans; experiment: Sensititre YeastOne Y09 AST drug combination assay; type: cell-based, Cryptococcus neoformans; settings: 6G-318S at 0.16 ug/ml, C. neoformans H99
Protocol: Sensititre YeastOne Y09 AST assay—Fungal susceptibility to a combination of compounds was carried out using the Sensititre YeastOne Y09 AST assay kit (Thermofisher), according to the manufacturer's manual. Briefly, fungal C. neoformans cells in exponential growth phase were diluted to a final OD530 of 0.1. Then 20 μl diluted cells were further diluted into 10 ml YPD as a stock. […] The stock C. neoformans (100 μl, ˜200 cells) were dispensed into the compound-ready 96-well plate. The fungal cells (treated or with DMF) were incubated at 30° C. for 48 h. The cell cultures were visualized by naked eye. The MIC break points were determined according to manufacturer's instructions.

Compound | IC50 [1] [µM] | IC50 [2] [µM] | CC50 at 48 h [3] [µM] | MIC [4] [µM] | reduction of MIC of known antifungal on addition of 6G-318S [5]
O=C(Nc1ccc(C(F)(F)F)cc1)c1ncsc1S(=O)(=O)c1ccc(Cl)cc1 [JMX0521, 5-((4-Chlorophenyl)sulfonyl)-N-(4-(trifluoromethyl)phenyl)thiazole-4-carboxamide] | 50 | 29.3 | 54.1 | > 100 | 
O=C(Nc1ccc(C(F)(F)F)cc1)c1nnsc1S(=O)(=O)c1ccc(Cl)cc1 [JMX0576, 5-((4-Chlorophenyl)sulfonyl)-N-(4-(trifluoromethyl)phenyl)-1,2,3-thiadiazole-4-carboxamide] | 0.9 | 11.9 | 40.3 | 0.78 (≈ 0.349 µg/mL) | 
O=C(NCc1ccc(F)cc1)c1nnsc1Sc1ccc(Cl)cc1 [JMX0573, 5-((4-Chlorophenyl)thio)-N-(4-fluorobenzyl)-1,2,3-thiadiazole-4-carboxamide] | > 50 | 5.5 | 282 | > 100 | 
O=C(Nc1ccc(Cl)cc1)c1nnsc1S(=O)(=O)c1ccc(Cl)cc1 [JMX0571, N-(4-Chlorophenyl)-5-((4-chlorophenyl)sulfonyl)-1,2,3-thiadiazole-4-carboxamide] | 1.8 | 12.6 | 33.8 | 0.39 (≈ 0.162 µg/mL) | 
O=C(Nc1ccc(F)cc1)c1nnc([S+]([O-])c2ccc(Cl)cc2)s1 (stereo not shown) [JMX0585-2, 5-((4-chlorophenyl)sulfinyl)-N-(4-fluorophenyl)-1,3,4-thiadiazole-2-carboxamide] | 4.5 | 20.9 | 28.5 | 0.097 (≈ 0.037 µg/mL) | 
CCCCCOc1ccc(-c2cc(-c3ccc(C(=O)N[C@H]4C[C@@H](O)[C@@H](O)NC(=O)[C@@H]5[C@@H](O)[C@@H](C)CN5C(=O)[C@H]([C@H](O)CC(N)=O)NC(=O)[C@H]([C@H](O)[C@@H](O)c5ccc(O)c(OS(=O)(=O)O)c5)NC(=O)[C@@H]5C[C@@H](O)CN5C(=O)[C@H]([C@@H](C)O)NC4=O)cc3)no2)cc1 [MF, Micafungin] (X1-[Orn(4R-OH,5R-OH)]T[Hyp][hTyr(3S-OH,4S-OH,3'-OSO3H)][Gln(3R-OH)][Pro(3S-OH,4S-Me)]; lactam 1-C) |  |  |  |  | did not change
O=C(Nc1ccc(F)cc1F)c1nnsc1Sc1ccc(Cl)cc1 [JMX0569, 5-((4-Chlorophenyl)thio)-N-(2,4-difluorophenyl)-1,2,3-thiadiazole-4-carboxamide] | > 50 | 36.2 | 186 | > 100 | 
CCCCCOc1ccc(-c2ccc(-c3ccc(C(=O)N[C@H]4C[C@@H](O)[C@@H](O)NC(=O)[C@@H]5[C@@H](O)[C@@H](C)CN5C(=O)[C@H]([C@@H](C)O)NC(=O)[C@H]([C@H](O)[C@@H](O)c5ccc(O)cc5)NC(=O)[C@@H]5C[C@@H](O)CN5C(=O)[C@H]([C@@H](C)O)NC4=O)cc3)cc2)cc1 [AND, Anidulafungin] ({pTerphenylCO(4''-OnC5H11)}-[Orn(4R-OH,5R-OH)]T[Hyp][hTyr(3S-OH,4S-OH)]T[Pro(3S-OH,4S-Me)]; lactam 1-C) |  |  |  |  | did not change
OC(Cn1cncn1)(Cn1cncn1)c1ccc(F)cc1F [FZ, fluconazole] |  |  |  |  | did not change
O=C(Nc1ccc(Cl)cc1)c1nnsc1Sc1ccc(Cl)cc1 [JMX0570, N-(4-Chlorophenyl)-5-((4-chlorophenyl)thio)-1,2,3-thiadiazole-4-carboxamide] | 38.7 | 21.6 | 83.7 | > 100 | 
CC[C@@H]([C@H](C)O)n1ncn(-c2ccc(N3CCN(c4ccc(OC[C@@H]5CO[C@@](Cn6cncn6)(c6ccc(F)cc6F)C5)cc4)CC3)cc2)c1=O [PZ, Posaconazole] |  |  |  |  | did not change
O=C(Nc1ccc(F)cc1)c1nnc(Sc2ccc(Cl)cc2)s1 [JMX0584, 5-((4-chlorophenyl)thio)-N-(4-fluorophenyl)-1,3,4-thiadiazole-2-carboxamide] | > 50 | 11 | > 150 | > 100 | 
O=C(Nc1ccc(C(F)(F)F)cc1)c1nnsc1Sc1ccc(Cl)cc1 [JMX0575, 5-((4-Chlorophenyl)thio)-N-(4-(trifluoromethyl)phenyl)-1,2,3-thiadiazole-4-carboxamide] | > 50 | 21.5 | 271 | > 100 | 
O=C(Nc1ccc(F)cc1)c1nnsc1Sc1ccc(Cl)cc1 [JMX0564, 5-((4-Chlorophenyl)thio)-N-(4-fluorophenyl)-1,2,3-thiadiazole-4-carboxamide] | 55.7 | 15.8 | 418 | > 100 | 
O=C(Nc1ccc(F)c(F)c1)c1ncsc1S(=O)(=O)c1ccc(Cl)cc1 [JMX0520, 5-((4-Chlorophenyl)sulfonyl)-N-(3,4-difluorophenyl)thiazole-4-carboxamide] | > 50 | 27.5 | 81.6 | > 100 | 
CC[C@H](C)C[C@H](C)CCCCCCCCC(=O)N[C@H]1C[C@@H](O)[C@@H](NCCN)NC(=O)[C@@H]2[C@@H](O)CCN2C(=O)[C@H]([C@H](O)CCN)NC(=O)[C@H]([C@H](O)[C@@H](O)c2ccc(O)cc2)NC(=O)[C@@H]2C[C@@H](O)CN2C(=O)[C@H]([C@@H](C)O)NC1=O [CAS, Caspofungin] |  |  |  |  | did not change
